The source of these data is ChEMBL document CHEMBL1201862, “PubChem BioAssay data set” (2004).

Test [1] is described as follows: reduction of Shn3 3'UTR-driven luciferase in osteoblasts – cell-based, Clone20 osteoblasts, firefly luciferase, cherry-picked, dose response (AID 624132).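 Note: firefly luciferase luminescence from reporter carrying the Shn3 3'UTR in osteoblasts.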 Format: functional.
Test [2] can be described thus: non-specific 3'UTR reporter inhibition in Clone20-Shn3RL – cell-based, Renilla luciferase, cherry-picked, counter-screen for Shn3 inhibitor project, dose response (AID 624133). Format: functional. (In general: Counterscreens check selectivity or assay interference.)
Test [3] concerns the target Protein Wnt-3a (Mus musculus, UniProt P27467). The experiment in a line: antagonism of Wnt3a pathway luciferase reporter – Wnt-LIGHT cells, luminescence, selectivity assay for Gli-SUFU antagonist project, dose response (AID 651570).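 Note: Wnt-LIGHT reporter cells stimulated with conditioned medium from Wnt3a-producing cells.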 The format is functional. Particulars: read-out: IC50_Mean. In general terms: In a reporter assay the amount or activity of a reporter protein is the signal.

Test [4] deals with Streptococcus sp. 'group A'. The experiment in a line: Streptococcus pyogenes SK(-)GAS viability under kanamycin – luminescence, BacTiterGlo, confirmation, counter-screen for streptokinase expression inhibitor project, dose response (AID 1900). Format: functional, organism-based.
Test [5] has as its target T1, Streptokinase A (Streptococcus pyogenes serotype M1, UniProt P10520).
T1 sequence (P10520 whole entry): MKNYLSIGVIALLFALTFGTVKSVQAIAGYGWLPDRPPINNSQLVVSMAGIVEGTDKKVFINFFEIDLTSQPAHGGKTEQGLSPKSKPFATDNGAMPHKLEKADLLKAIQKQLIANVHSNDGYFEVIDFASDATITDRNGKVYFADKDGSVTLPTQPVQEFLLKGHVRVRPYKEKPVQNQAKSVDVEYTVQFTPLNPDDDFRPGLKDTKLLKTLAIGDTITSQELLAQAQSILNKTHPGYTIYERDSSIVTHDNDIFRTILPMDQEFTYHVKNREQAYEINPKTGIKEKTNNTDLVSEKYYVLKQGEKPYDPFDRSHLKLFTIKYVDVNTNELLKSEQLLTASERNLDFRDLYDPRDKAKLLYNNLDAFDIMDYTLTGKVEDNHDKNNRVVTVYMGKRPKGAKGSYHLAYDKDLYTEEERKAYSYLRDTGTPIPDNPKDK
The experiment in a line: viability-normalized secreted streptokinase activity reduction – plasminogen activation absorbance, OD405, dose response (AID 1914).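 Note: secreted streptokinase activity via plasminogen activation per viability signal from cell pellet.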 The format is functional, Streptococcus pyogenes M1 GAS.

For test [6], the system named is Streptococcus. The experiment in a line: GAS UMAA2166 growth inhibition – luminescence, BacTiterGlo, counter-screen for streptokinase expression inhibitor project, dose response (AID 1915).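 Note: potency for reduction of bacterial viability or growth.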 The format is functional, organism-based.
Test [7] deals with Vero. The experiment in a line: viability of Vero cells under compound – cytotoxicity control for flavivirus capping enzyme inhibitors (AID 588742). The format is functional. Particulars: Chlorocebus sabaeus.
Test [8] is described as follows: HPDE-C7 pancreatic duct cell viability loss – fluorescence, HTS (AID 430). The format is functional, cell-based. Particulars: Homo sapiens.
Test [9] in a line: viability loss of HPDE-C7K cells – cell-based, fluorescence, HTS, primary screen (AID 431). Particulars: Homo sapiens. The format is functional.
In test [10] the target is T2, Apoptotic protease-activating factor 1 (Homo sapiens, UniProt O14727).
T2 sequence (O14727 whole entry): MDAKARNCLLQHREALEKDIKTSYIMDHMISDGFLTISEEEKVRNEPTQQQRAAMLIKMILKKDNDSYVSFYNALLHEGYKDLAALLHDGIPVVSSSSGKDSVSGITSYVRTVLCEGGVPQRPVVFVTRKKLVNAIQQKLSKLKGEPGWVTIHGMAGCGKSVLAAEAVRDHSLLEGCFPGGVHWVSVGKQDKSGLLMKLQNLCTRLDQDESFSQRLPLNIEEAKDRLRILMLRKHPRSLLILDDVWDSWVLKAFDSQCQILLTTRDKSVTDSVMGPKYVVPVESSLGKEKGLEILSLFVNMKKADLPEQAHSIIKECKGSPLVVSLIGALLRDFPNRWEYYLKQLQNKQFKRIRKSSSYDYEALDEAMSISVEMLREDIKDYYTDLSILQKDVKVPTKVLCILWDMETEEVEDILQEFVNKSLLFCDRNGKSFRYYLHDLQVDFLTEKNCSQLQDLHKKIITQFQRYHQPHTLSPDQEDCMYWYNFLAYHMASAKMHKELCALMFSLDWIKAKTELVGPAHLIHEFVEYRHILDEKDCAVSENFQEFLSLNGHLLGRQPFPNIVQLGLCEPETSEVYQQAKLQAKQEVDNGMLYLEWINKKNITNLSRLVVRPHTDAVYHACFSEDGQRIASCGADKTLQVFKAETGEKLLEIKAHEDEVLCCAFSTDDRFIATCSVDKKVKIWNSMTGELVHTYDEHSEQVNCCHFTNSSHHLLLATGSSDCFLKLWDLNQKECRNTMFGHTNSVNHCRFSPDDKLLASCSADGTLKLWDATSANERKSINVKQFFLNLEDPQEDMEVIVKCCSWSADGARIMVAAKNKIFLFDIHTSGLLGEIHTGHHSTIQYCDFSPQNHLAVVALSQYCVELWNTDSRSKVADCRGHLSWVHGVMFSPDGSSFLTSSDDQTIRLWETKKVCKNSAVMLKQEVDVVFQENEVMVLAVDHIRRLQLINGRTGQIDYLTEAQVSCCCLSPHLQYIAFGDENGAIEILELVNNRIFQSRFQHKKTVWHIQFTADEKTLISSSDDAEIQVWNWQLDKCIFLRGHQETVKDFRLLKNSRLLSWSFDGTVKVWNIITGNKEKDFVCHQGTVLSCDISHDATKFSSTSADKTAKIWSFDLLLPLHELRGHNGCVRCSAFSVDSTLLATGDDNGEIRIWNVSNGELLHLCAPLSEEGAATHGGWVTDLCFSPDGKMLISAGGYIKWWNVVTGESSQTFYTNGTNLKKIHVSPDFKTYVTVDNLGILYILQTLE
The format is functional.

Test [11] can be described thus: inhibition of ARNT PAS-B/TACC3 complex formation – biochemical, AlphaScreen, cherry-picked samples, confirmation (AID 651703).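 Note: His-tagged ARNT PAS-B domain paired with GST-TACC3 E629A dimer coactivator fragment; potency of inhibitors that break up the complex and lower AlphaScreen signal.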 Format: functional, Homo sapiens. Background: Alpha assays give light when donor and acceptor beads are brought close together.
Test [12] concerns the target T3, Histone-lysine N-methyltransferase NSD2 (Homo sapiens, UniProt O96028).
T3 sequence (O96028 whole entry): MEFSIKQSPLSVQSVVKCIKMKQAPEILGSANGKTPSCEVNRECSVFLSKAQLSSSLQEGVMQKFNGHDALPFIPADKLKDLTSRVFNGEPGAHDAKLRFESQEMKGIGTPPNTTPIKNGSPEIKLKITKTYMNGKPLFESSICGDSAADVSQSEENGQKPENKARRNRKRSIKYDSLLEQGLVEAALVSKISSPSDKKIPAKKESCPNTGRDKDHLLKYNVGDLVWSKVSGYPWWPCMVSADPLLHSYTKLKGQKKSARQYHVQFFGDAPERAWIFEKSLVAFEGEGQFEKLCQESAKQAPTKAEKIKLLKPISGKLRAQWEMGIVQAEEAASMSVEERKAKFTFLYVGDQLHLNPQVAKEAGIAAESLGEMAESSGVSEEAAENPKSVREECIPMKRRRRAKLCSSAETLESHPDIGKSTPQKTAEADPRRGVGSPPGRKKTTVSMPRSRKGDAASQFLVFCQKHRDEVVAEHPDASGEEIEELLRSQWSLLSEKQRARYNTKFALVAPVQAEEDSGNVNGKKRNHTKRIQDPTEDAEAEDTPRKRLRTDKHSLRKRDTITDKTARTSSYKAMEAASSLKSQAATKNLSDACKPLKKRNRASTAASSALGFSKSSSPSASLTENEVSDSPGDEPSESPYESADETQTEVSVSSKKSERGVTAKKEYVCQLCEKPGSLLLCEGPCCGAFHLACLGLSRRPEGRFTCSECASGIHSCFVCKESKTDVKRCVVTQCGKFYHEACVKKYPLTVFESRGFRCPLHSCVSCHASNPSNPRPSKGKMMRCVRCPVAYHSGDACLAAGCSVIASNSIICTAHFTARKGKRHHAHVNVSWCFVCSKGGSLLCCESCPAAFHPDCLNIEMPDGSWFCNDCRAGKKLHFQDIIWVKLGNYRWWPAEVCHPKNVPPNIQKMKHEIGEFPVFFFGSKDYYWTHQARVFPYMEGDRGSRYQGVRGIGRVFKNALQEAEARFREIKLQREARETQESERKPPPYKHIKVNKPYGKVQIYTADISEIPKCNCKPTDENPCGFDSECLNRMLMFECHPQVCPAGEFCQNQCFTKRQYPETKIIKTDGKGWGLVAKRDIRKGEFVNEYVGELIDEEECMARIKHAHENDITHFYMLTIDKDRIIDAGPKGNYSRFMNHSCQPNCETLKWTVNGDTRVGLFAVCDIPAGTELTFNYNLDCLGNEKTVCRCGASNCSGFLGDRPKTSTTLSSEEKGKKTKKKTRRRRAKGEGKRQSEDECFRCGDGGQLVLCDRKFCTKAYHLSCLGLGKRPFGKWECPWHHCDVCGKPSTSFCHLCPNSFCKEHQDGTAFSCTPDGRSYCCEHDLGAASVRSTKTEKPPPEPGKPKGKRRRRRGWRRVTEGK
Format: biochemical.

Test [13] in a line: microbe, parasite or virus in culture. The format is functional. Particulars: Mycobacterium tuberculosis.
The subject of test [14] is HEK293. The experiment in a line: EBV LMP1 TES2 canonical NF-kB signalling blockers – cell-based, HEK293, luciferase, cherry-pick, dose response (AID 588343). The format is functional. Particulars: Homo sapiens.
Test [15] relates to Vero. The experiment in a line: cells. Format: functional. Particulars: Chlorocebus sabaeus.
A short description of test [16]: loss of viability in HepG2 cells – cell-based, CellTiter-Glo, cherry-picked, cytotoxicity control for Shn3 inhibitor project, dose response (AID 624134). The format is functional.
The target in test [17] is T4, Interleukin-8 (Homo sapiens, UniProt P10145).
T4 sequence (P10145 whole entry): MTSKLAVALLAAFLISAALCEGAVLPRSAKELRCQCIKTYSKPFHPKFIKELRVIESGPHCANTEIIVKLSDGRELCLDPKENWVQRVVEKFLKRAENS
The experiment in a line: Dose Response confirmation of uHTS small molecule hits for cystic fibrosis induced NFkb Inhibitors in a PAF-induced IL8 counterscreen. The format is functional. Particulars: read-out: IC50_Mean.

Test [18] concerns the target T5, Polyadenylate-binding protein 1 (Homo sapiens, UniProt P11940). The experiment in a line: MLLE binding blockers, Cy5 peptide tracer – biochemical, fluorescence polarization, Cy5-PAM2 peptide, secondary, miRNA deadenylation inhibitor project, dose response (AID 602260). The format is functional. Particulars: read-out: IC50_Mean.
Test [19] has as its target T5, Polyadenylate-binding protein 1. The experiment in a line: MLLE domain peptide-binding blockers, IC50 – biochemical, fluorescence polarization, FITC-PAM2 peptide, dose response (AID 602259). Format: functional. Particulars: read-out: IC50_Mean.
Test [20] addresses Adenosylmethionine-8-amino-7-oxononanoate aminotransferase (Mycobacterium tuberculosis, UniProt P9WQ81). The experiment in a line: Mycobacterium tuberculosis BioA enzyme inhibitor Measured in Biochemical System Using Plate Reader - 2163-02_Inhibitor_Dose_CherryPick_Activity. Format: functional, Mycobacterium tuberculosis UT205.
In test [21] the test system is INS1. The experiment in a line: INS-1E survival protection against cytokine death – cell-based, luminescence, retest, dose response (AID 449756).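 Note: cell death triggered by IL-1 beta plus TNF-alpha plus IFN-gamma mixture; protective hits raise ATP signal compared with cytokine alone wells.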 The format is functional. Particulars: Rattus norvegicus.
Test [22] concerns the target DNA repair and recombination protein RAD54-like (Homo sapiens, UniProt Q92698). The experiment in a line: RAD54 Holliday junction migration blockers – biochemical, fluorescence, cherry-picked samples, dose series, confirmation (AID 651657). Format: functional.

The structures appear in SMILES notation. The source made the active and inactive calls.

T5 sequence (P11940 whole entry, the tested form may be a part): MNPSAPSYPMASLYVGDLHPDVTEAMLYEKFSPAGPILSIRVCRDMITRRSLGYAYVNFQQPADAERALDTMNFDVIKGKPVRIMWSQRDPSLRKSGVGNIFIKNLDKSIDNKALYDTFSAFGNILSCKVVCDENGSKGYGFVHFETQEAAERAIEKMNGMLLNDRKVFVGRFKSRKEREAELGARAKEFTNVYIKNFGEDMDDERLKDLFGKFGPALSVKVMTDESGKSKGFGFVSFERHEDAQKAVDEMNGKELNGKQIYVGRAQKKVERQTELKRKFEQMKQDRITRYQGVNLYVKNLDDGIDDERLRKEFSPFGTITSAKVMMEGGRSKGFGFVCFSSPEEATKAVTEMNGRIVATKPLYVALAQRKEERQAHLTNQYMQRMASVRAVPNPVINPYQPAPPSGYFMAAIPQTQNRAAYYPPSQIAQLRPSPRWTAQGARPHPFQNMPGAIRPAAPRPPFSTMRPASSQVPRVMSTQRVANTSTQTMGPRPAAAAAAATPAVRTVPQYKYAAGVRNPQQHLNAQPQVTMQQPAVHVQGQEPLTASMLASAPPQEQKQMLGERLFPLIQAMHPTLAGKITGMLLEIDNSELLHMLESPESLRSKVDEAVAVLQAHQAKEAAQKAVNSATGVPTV
Protein Wnt-3a, sequence (P27467 whole entry): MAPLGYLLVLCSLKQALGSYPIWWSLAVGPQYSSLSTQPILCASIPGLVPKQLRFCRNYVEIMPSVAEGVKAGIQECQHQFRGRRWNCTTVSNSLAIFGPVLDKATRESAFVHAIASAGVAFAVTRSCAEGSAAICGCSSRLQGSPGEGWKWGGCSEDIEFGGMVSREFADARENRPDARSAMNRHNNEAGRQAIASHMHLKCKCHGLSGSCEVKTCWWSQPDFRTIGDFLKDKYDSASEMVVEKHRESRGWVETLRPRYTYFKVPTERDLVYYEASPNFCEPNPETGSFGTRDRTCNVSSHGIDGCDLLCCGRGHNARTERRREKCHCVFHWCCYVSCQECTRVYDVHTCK
Adenosylmethionine-8-amino-7-oxononanoate aminotransferase, sequence (P9WQ81 whole entry): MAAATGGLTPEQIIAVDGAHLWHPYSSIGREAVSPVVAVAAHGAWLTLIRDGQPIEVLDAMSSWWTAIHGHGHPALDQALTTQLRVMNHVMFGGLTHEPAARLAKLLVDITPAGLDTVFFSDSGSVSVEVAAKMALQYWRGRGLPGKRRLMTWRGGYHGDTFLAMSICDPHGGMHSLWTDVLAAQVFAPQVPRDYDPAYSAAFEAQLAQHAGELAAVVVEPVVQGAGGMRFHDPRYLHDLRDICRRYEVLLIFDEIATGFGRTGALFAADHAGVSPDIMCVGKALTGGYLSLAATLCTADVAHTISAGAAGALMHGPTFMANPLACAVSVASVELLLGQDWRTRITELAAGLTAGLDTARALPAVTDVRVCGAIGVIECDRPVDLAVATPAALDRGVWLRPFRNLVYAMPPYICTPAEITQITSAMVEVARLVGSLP
DNA repair and recombination protein RAD54-like, sequence (Q92698 whole entry): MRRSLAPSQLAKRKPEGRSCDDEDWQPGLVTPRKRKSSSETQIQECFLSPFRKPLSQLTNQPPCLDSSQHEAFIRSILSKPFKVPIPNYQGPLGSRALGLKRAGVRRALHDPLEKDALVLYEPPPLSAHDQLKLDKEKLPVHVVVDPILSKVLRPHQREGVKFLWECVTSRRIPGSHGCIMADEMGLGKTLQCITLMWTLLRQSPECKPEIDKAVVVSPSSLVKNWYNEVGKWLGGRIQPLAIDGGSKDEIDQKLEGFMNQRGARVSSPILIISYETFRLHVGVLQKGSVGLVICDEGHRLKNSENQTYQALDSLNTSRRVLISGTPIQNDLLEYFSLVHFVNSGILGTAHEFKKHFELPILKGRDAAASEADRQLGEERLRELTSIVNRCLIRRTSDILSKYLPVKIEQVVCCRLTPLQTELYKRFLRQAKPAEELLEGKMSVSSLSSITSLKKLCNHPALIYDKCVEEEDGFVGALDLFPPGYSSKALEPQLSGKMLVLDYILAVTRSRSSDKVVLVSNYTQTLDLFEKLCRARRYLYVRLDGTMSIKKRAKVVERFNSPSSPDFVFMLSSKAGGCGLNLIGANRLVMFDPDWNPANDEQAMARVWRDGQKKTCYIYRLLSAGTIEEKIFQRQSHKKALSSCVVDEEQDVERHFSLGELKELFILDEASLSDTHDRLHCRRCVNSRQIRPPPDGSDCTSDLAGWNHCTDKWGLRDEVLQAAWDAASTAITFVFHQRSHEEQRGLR

In general, AC50 refers to the concentration giving half of the maximal activity seen. For the compound `O=C(N[C@@H]1C/C=C\C[C@H](CC(=O)N(CCO)Cc2ccccc2)C(=O)NC[C@@H](c2ccccc2)OC1=O)OCC1c2ccccc2-c2ccccc21`, the AC50 in [1] was 4.5 µM (active); in test [2], 4.9 µM (active). Also, in [3], the IC50 was 4.4 µM (active).
Usually EC50 stands for the concentration at which the effect is half-maximal. For `COc1ccc(NC(S)=NNc2ccc([N+](=O)[O-])cc2S(=O)(=O)Nc2ccc(C)cc2C)cc1`, the figures for the concentration giving a half-maximal response (EC50) in test [4], in test [5] and in test [6] were 6.57 µM (active), > 150 µM (not active) and 37.7 µM (active), respectively. In [7], the CC50 is 12.2 µM (active).
For `COCCCn1c(N)c(C(=O)NCCC(C)C)c2nc3ccccc3nc21`, the figures for the EC50 in test [8] and in test [9] were 11.3 µM (active) and 12 µM (active), respectively. The IC50 in test [10] is 46.2 µM (active). Also, the AC50 in test [11] is 74.7 µM (active); in test [12] it was 15.9 µM (active).
Take `CCOC(=O)Oc1c(OC)cc(C(=O)O[C@@H]2C[C@@H]3CN4CCc5c([nH]c6cc(OC)ccc56)[C@H]4C[C@@H]3[C@H](C(=O)OC)[C@H]2OC)cc1OC` [SYROSINGOPINE]: the CC50 is 24.6 µM (active) in [13] and 11.9 µM (active) in test [15]. In addition, the AC50 in test [14] was 24.6 µM (active); in test [1], 10.7 µM (active); in test [16], 50.6 µM (active); in test [2] it was 22.4 µM (active). In addition, the IC50 in test [17] was > 79 µM (inactive).
`CC(C)C(=O)Nc1ccc(NC(=S)NC(=O)c2ccc([N+](=O)[O-])cc2)cc1`: the IC50 in [18] and in test [19] was > 66 µM (inactive) throughout.
In the case of `CNC(=O)C[C@H]1CC[C@@H]2[C@H](COC[C@@H](O)CN2C(=O)Nc2cccc(OC)c2)O1`, the AC50 in test [20] is 4.57 µM (active).
On to `Cc1sc2ncnc(NCC(O)c3ccc([N+](=O)[O-])cc3)c2c1C` (centres undefined), for which the AC50 in [21] is 3.56 µM (active). Also, the IC50 in test [3] is 0.544 µM (active).
As to `Cc1ccnc(SC2CC(=O)N(c3ccccc3)C2=O)n1` (centres undefined), the IC50 in test [18] and in test [19] was > 66 µM (inactive) each time.
As for `CC(N)c1csc(Nc2nncc3ccccc23)n1` (centres undefined), the AC50 in test [22] is 28.5 µM (active).
With `CCc1ccc(NC(=S)Nc2cccc3cnccc23)cc1`, the IC50 in [10] was 20 µM (active).
Consider `CC(=O)c1ccc(C(=O)N2CCCC(C(=O)c3ccc(Cl)cc3)C2)s1` (centres undefined), for which the AC50 in test [20] was 2.51 µM (active).
